Experimental data: patent US9738599B2, “Thromboxane receptor antagonists” (UNIVERSITY COLLEGE DUBLIN, NATIONAL UNIVERSITY OF IRELAND, …, priority 2012, dated 2017)

Assays:
[1] = target: T1, TPβ (Homo sapiens, UniProt P21731); assay: U46619-induced [Ca2+]i mobilization in HEK.TPβ cells; type: cell-based; conditions: for Reduction of U46619-mediated calcium mobilization in HEK.TPβ cells: at 1 & 10 μM concentrations; for Calcium mobilization, Percentage of Control, TPβ / remaining activity at 1 µM: 1 μM U46619, HEK.TPβ, mean ± S.E.M.; for remaining activity at 1 µM: read-out: Calcium mobilization, Percentage of Control, TPβ; for inhibition at 0.5 µM: antagonist 0.5 μM, read-out: Inhibition of U46619-mediated responses in HEK.TPβ cells
T1 construct: expressed in transfected cells
T1 sequence (P21731 1-407 isoform P21731-2): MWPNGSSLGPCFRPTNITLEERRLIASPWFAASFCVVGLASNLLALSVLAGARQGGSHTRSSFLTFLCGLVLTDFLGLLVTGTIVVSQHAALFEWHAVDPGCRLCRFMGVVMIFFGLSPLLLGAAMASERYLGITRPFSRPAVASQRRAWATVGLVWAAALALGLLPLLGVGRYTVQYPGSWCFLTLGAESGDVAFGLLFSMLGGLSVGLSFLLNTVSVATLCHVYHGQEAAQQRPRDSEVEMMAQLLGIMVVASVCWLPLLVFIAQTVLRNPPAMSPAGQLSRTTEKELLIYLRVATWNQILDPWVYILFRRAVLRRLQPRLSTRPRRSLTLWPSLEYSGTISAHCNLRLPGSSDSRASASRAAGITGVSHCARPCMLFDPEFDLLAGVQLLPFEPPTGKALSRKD
Source text: (§1) The appropriate functional test for the evaluation of the agonistic and/or antagonistic potency of the compounds of the invention is the determination of calcium flux. Both TPα and […] are coupled to the G-protein Gαq. Therefore, stimulation of these receptors ultimately leads to a release of intracellular calcium ([Ca^2+]i) from intracellular stores. Consequently, the determination of [Ca^2+]i flux represents an appropriate functional test for the evaluation of the agonistic/antagonistic potency of compounds of the invention. Calcium can be measured using a molecule characterized by the covalent combination of a Ca^2+ chelating group and a fluorophore group. The Ca^2+ binding properties of these indicators are formed by the presence of a tetracarboxylic acid core as found for example in EGTA (ethylene glycol bis(2-aminoethyl) tetraacetic acid). Binding of Ca^2+ produces a wavelength shift in either the excitation or emission fluorescence spectra or a change in the emission intensity. Whereas the Ca^2+ binding to EGTA is pH dependent, recent dyes are designed from an EGTA derivative, BAPTA (1, 2-Bis(2-Aminophenoxy)ethane-N, N, N′, N′-Tetraacetic Acid). Loading of these dyes inside cells commonly uses esterified forms (acetoxymethyl ester), which are able to cross the cell membranes and are subsequently hydrolyzed by esterases inside the cell.
(§2) Estimation of [Ca^2+]i flux is calculated from the fluorescence signal (F). For calibration, the maximal fluorescence (Fmax, Ca^2+-saturated form of the dye) as well as minimal fluorescence (Fmin, Ca^2+-free form of the dye) must be determined. These parameters are determined usually in situ after the experiment, for example by subsequent addition to the mixture of a cell-disrupting agent that releases all Ca^2+ such as Triton X100 and a potent Ca^2+-chelating agent such as EGTA. After subtraction of background fluorescence, [Ca^2+]i flux can be calculated for non-ratiometric indicators.
(§3) Intracellular [Ca^2+]i fluxes were measured using a fluorescence plate reader following a modified protocol of Kassack et al., Quantitative comparison of functional screening by measuring intracellular Ca^2+ with radioligand binding at recombinant human dopamine receptors. AAPS Pharmsci, 2002, 4(4); 102-111, in cell lines (e.g. HEK293 or other cell type) endogenously-expressing or over-expressing either TPα, TPβ or any other receptor or protein to be screened.
(§4) By way of example, HEK 293 cells which have been grown for 3-4 days in normal growth media (minimum essential media containing 10% FBS and 2 mmol/l L-glutamine), under normal growth conditions (37° C., in humidified 5% CO2 atmosphere) are washed and harvested in KREBs-HEPES buffer (118 mM NaCl, 4.7 mM KCl, 1.2 mM MgSO4, 1.2 mM KH2PO4, 4.2 mM NaHCO3, 11.7 mM D-glucose, 1.3 mM CaCl2, 10 mM HEPES, pH 7.4). Cells are then incubated with 3 µM Fluo-4 in KREBs-HEPES buffer containing 1% Pluoronic F-127, for 1 hr at 25° C. with agitation. Thereafter, cells are washed in KREBs-HEPES buffer containing 0.5% bovine serum albumin and resuspended at a final concentration of 3×10^5 cells/ml. Approximately, 5.4×10^4 cells per well are plated in a 96-well plate and pre-incubated with test compounds for 10 min prior to measuring the fluorescence intensity at 520 nm for 25 seconds at 1 second intervals to monitor baseline using the Fluoroskan Ascent. Agonist (e.g., 1 μM U46619) is injected into separate wells by the automatic pipettor and fluorescence intensity is monitored at 520 nm for 75 seconds at 1 second intervals. Thereafter, Triton X100 and EGTA are added sequentially where Fmax refers to maximal fluorescence intensity measured after permeabilization of the cells with 2% Triton X100 and Fmin refers to fluorescence intensity measured after addition of 1 mM EGTA.
(§5) The dye Fluo-4 has its excitation peak at 480 nm, in the visible spectra, which spare cells to be damaged by UV (340-360 nm) stimulation and reduces auto-fluorescence of cells. […]

[2] = target: T2, TPα (Homo sapiens, UniProt P21731); assay: U46619-induced [Ca2+]i mobilization in HEK.TPα cells; type: cell-based; conditions: 1 μM U46619, mean ± S.E.M.
T2 construct: expressed in transfected cells
T2 sequence (P21731 1-343): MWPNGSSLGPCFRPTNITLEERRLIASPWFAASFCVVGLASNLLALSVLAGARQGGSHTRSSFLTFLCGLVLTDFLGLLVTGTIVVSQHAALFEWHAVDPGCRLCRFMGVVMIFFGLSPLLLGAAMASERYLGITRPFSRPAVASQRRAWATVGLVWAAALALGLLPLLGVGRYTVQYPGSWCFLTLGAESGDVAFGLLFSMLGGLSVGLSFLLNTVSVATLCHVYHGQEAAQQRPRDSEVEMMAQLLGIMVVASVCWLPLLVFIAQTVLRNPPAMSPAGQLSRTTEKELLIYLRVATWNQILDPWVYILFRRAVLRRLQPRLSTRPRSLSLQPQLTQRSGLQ
Source text: as §1, §2, §3, §4, §5

[3] = system: platelets in whole blood; assay: U46619-mediated platelet aggregation in whole blood (Sysmex haematological analyzer); type: cell-based, human; conditions: antagonist 0.1 μM, 1 μM U46619 for 3 min
Experimental: From an efficacy point of view, this is an important assay and, physiologically, relevant with respect to the therapeutic target.
Initially, the Sysmex haematological analyzer was used to examine the effect of the TP antagonists at a single concentration (0.1 μM) on U46619 (1 μM)-mediated platelet aggregation in whole blood.
FIG. 3 illustrates effects of the TP antagonist compounds on U46619-mediated platelet aggregation. Blood was taken form healthy volunteer by venupuncture into syringes containing 3.8% sodium citrate, 10 μM Indomethacin, such that the ratio of anticoagulant: blood was 1:9. The blood was aliquoted and incubated for 10 min with TP20 and selected NTP compounds, as indicated, where the antagonist were used at 0.1 μM prior to stimulation with 1 μM U46619 for 3 min. The blood was fixed with formaldehyde and platelet numbers counted using the Sysmex haematological analyzer. Data is presented as the mean percentage of control or non-treated blood sample (Percentage of Control; %) and represent data from 3 independent experiments were samples were treated in duplicate.

| SMILES | Calcium mobilization, Percentage of Control, TPα ([2]; antagonist 1 μM) [%] | Calcium mobilization, Percentage of Control, TPα ([2]; antagonist 10 μM) [%] | Calcium mobilization, Percentage of Control, TPβ ([1]; antagonist 1 μM) [%] | Calcium mobilization, Percentage of Control, TPβ ([1]; antagonist 10 μM) [%] | other results |
| --- | --- | --- | --- | --- | --- |
| Cc1ccc(Nc2ccc([N+](=O)[O-])cc2S(=O)(=O)NC(=O)NC(C)(C)C)cc1 [BM573, reference compound] | – | – | – | – | Reduction of U46619-mediated calcium mobilization in HEK.TPβ cells [1]: potently inhibited |
| COc1ccc(-c2cccc(Oc3ccc(C(F)(F)F)cc3S(=O)(=O)NC(=O)NC(C)(C)C)c2)cc1 [NTP3, N-(tert-butylcarbamoyl)-2-((4′-methoxy-[1,1-biphenyl]-3-yl)oxy)-5-(trifluoromethyl) benzenesulfonamide] | 69.6 ± 5.92 | 41.6 ± 5.45 | 46.0 ± 5.92 | 14.8 ± 2.44 | – |
| COc1ccc(-c2cccc(Oc3ccc(F)cc3S(=O)(=O)NC(=O)NC(C)(C)C)c2)cc1 [NTP8, N-(tert-butylcarbamoyl)-5-fluoro-2-((4′-methoxy-[1,1′-biphenyl]-3-yl)oxy)benzene-sulfonamide] | – | – | – | – | remaining activity at 1 µM ([1]; antagonist 1 μM): 5.94 ± 1.85% |
| COc1ccc(-c2cccc(Oc3ccc(C(=O)N4CC(O)C4)cc3S(=O)(=O)NC(=O)NC(C)(C)C)c2)cc1 [NTP23, N-(tert-butylcarbamoyl)-5-(3-hydroxyazetidine-1-carbonyl)-2-((4′-methoxy-[1,1′-biphenyl]-3-yl)oxy)benzenesulfonamide] | – | – | – | – | remaining activity at 1 µM ([1]; antagonist 1 μM): 4.84 ± 2.75% |
| COc1ccc(-c2cccc(Oc3ccc(S(C)(=O)=O)cc3S(=O)(=O)NC(=O)NC(C)(C)C)c2)cc1 [NTP27, N-(tert-butylcarbamoyl)-2-((4′-methoxy-[1,1′-biphenyl]-3-yl)oxy)-5-(methylsulfonyl) benzenesulfonamide] | 81.1 ± 10.2 | 68.4 ± 4.56 | 36.4 ± 3.80 | 16.3 ± 2.39 | – |
| COc1ccc(-c2cccc(Oc3ccc(Cl)cc3S(=O)(=O)NC(=O)NC(C)(C)C)c2)cc1 [NTP30, N-(tert-butylcarbamoyl)-5-chloro-2-((4′-methoxy-[1,1′-biphenyl]-3-yl)oxy) benzenesulfonamide] | 52.2 ± 3.90 | 23.3 ± 3.63 | 46.5 ± 5.86 | 9.31 ± 1.57 | – |
| COc1ccc(-c2cccc(Oc3cc(C)c(C#N)cc3S(=O)(=O)NC(=O)NC(C)(C)C)c2)cc1 [NTP32, N-(tert-butylcarbamoyl)-5-cyano-2-((4′-methoxy-[1,1′-biphenyl]-3-yl)oxy)-4-methyl benzenesulfonamide] | 80.3 ± 4.21 | 69.3 ± 2.07 | 93.6 ± 4.06 | 46.2 ± 4.83 | – |
| COc1ccc(-c2cccc(Oc3ccc([N+](=O)[O-])cc3S(=O)(=O)NC(=O)NC(C)(C)C)c2)cc1 [TP20, N-(tert-butylcarbamoyl)-2-((4′-methoxy-[1,1′-biphenyl]-3-yl)oxy)-5-nitrobenzene-sulfonamide] | – | – | – | – | inhibition at 0.5 µM [1]: > 50%; Reduction of U46619-mediated calcium mobilization in HEK.TPβ cells [1]: approx. 90%; Inhibition of the U46619-mediated reduction in platelet number [3]: almost completely inhibited |
| CC(C)(C)NC(=O)NS(=O)(=O)c1cc([N+](=O)[O-])ccc1Oc1cccc(-c2ccc(C(F)(F)F)cc2)c1 [XII] | – | – | – | – | inhibition at 0.5 µM [1]: > 50% |
